Source: US20080228408A1, “Method for Determining the State of an Ensemble of Cells and System for the Implementation of the Method” (priority 2005, published 2008)

Test system: neuronal cells
Assay: Toxicogenomic DNA chip test: gene expression level (RES) in cells exposed to the compound compared to unexposed cells
Assay type: cell-based
From the text: One wishes to carry out the evaluation of the toxicity of a collection of (15) pesticides using a toxicogenomic analysis of the impact of these pesticides on neuronal cells, according to 4 modes of exposure of the cells to the compounds:
DNA chips built specifically to test the expression level of the 51 genes in cells under study, each chip being configured only for one gene in our case, each chip allowing to carry out for each gene a redundant number of measurements (16) in order to stabilize the levels of expression by analysing the results on average. The spots on the chips are numbered sp1 to sp16.
An automated device D5 allowing, on signal of execution of the C2 test, to take a E1 sample of the cell culture C (non exposed) and a E2 sample of the cell culture C exposed to the compound by the device described previously under the conditions specified with the configuration, then to use the D1 device to select a DNA chip corresponding to the gene specified at the time of the configuration, and to put the samples E1 and E2 thus obtained in the presence of the aforementioned DNA chip according to the methods described in the D1 device,
The result of a test, RES, transmitted by the Resource Unit to the PC, is a raw numerical value which indicates the expression level of the gene indicated in the configuration, for the cell exposed to the compound under the conditions of concentration and exposure duration specified in the configuration, compared to the expression level of the same gene in an unexposed cell of identical nature.
The following results are based on 3 evaluations, each using a different strategy, the target cells being neuronal cells, the mode of exposure being Expo11.
The results presented in table 2 show the values obtained in (052) for the evaluation of Paraquat according to the 4 modes Expo11, Expo12, Expo21, Expo22 carried out. The missing data are not relevant (ranging between 0.5 and 2 strictly).

[1] = Neuron, C2 (IC50/10), 24 h (Expo21)
[2] = Neuron, C2 (IC50/10), 48 h (Expo22)
[3] = neuronal cells, Expo11 (IC50, 24 h), strategy of selection by class

C[n+]1ccc(-c2cc[n+](C)cc2)cc1 [Paraquat]
ALB gene expression level RES (exposed/unexposed cells) [1]: 0.34
APAF1 gene expression level RES (exposed/unexposed cells) [1]: 0.20
AR gene expression level RES (exposed/unexposed cells) [1]: 0.08
ATF6 gene expression level RES (exposed/unexposed cells) [1]: 0.17
ATM gene expression level RES (exposed/unexposed cells) [1]: 0.11
BAX gene expression level RES (exposed/unexposed cells) [1]: 0.09
BCL2 gene expression level RES (exposed/unexposed cells) [1]: 0.14
BZRP gene expression level RES (exposed/unexposed cells) [1]: 0.14
C12ORF8 gene expression level RES (exposed/unexposed cells) [1]: 0.22
CALR gene expression level RES (exposed/unexposed cells) [1]: 0.38
CDC25C gene expression level RES (exposed/unexposed cells) [1]: 0.37
CDK4 gene expression level RES (exposed/unexposed cells) [1]: 0.29
CDKN1A gene expression level RES (exposed/unexposed cells) [1]: 0.13
CREB1 gene expression level RES (exposed/unexposed cells) [1]: 0.29
CTSB gene expression level RES (exposed/unexposed cells) [1]: 0.20
CTSD gene expression level RES (exposed/unexposed cells) [1]: 0.05
EGF gene expression level RES (exposed/unexposed cells) [1]: 0.21
EPHX1 gene expression level RES (exposed/unexposed cells) [1]: 0.19
FOS gene expression level RES (exposed/unexposed cells) [1]: 0.12
GADD45A gene expression level RES (exposed/unexposed cells) [1]: 0.20
GPX1 gene expression level RES (exposed/unexposed cells) [1]: 0.09
GSS gene expression level RES (exposed/unexposed cells) [1]: 0.28
GSTM3 gene expression level RES (exposed/unexposed cells) [1]: 0.36
HOXD1 gene expression level RES (exposed/unexposed cells) [1]: 0.11
HSPA5 gene expression level RES (exposed/unexposed cells) [1]: 0.33
HSPA9B gene expression level RES (exposed/unexposed cells) [1]: 0.16
JUN gene expression level RES (exposed/unexposed cells) [1]: 0.33
MDM2 gene expression level RES (exposed/unexposed cells) [1]: 0.05
NFKB1 gene expression level RES (exposed/unexposed cells) [1]: 0.26
NOS2A gene expression level RES (exposed/unexposed cells) [1]: 0.30
PARA gene expression level RES (exposed/unexposed cells) [1]: 0.04
PGR gene expression level RES (exposed/unexposed cells) [1]: 0.12
RAD50 gene expression level RES (exposed/unexposed cells) [1]: 0.35
RAD51 gene expression level RES (exposed/unexposed cells) [1]: 0.22
SOD1 gene expression level RES (exposed/unexposed cells) [1]: 0.24
TF1 gene expression level RES (exposed/unexposed cells) [1]: 0.53
THBS1 gene expression level RES (exposed/unexposed cells) [1]: 0.08
TP53 gene expression level RES (exposed/unexposed cells) [1]: 0.31
TUBA1 gene expression level RES (exposed/unexposed cells) [1]: 0.03
XBP1 gene expression level RES (exposed/unexposed cells) [1]: 0.24
A2M gene expression level RES (exposed/unexposed cells) [2]: 0.04
AITCH gene expression level RES (exposed/unexposed cells) [2]: 0.03
ALB gene expression level RES (exposed/unexposed cells) [2]: 0.02
APAF1 gene expression level RES (exposed/unexposed cells) [2]: 0.05
AR gene expression level RES (exposed/unexposed cells) [2]: 0.05
ATF6 gene expression level RES (exposed/unexposed cells) [2]: 0.06
ATM gene expression level RES (exposed/unexposed cells) [2]: 0.04
BAX gene expression level RES (exposed/unexposed cells) [2]: 0.05
BCL2 gene expression level RES (exposed/unexposed cells) [2]: 0.03
BZRP gene expression level RES (exposed/unexposed cells) [2]: 0.04
C12ORF8 gene expression level RES (exposed/unexposed cells) [2]: 0.04
CALR gene expression level RES (exposed/unexposed cells) [2]: 0.11
CDC25C gene expression level RES (exposed/unexposed cells) [2]: 0.05
CDK4 gene expression level RES (exposed/unexposed cells) [2]: 0.06
CDKN1A gene expression level RES (exposed/unexposed cells) [2]: 0.02
CREB1 gene expression level RES (exposed/unexposed cells) [2]: 0.05
CTSB gene expression level RES (exposed/unexposed cells) [2]: 0.06
CTSD gene expression level RES (exposed/unexposed cells) [2]: 0.03
EGF gene expression level RES (exposed/unexposed cells) [2]: 0.05
EPHX1 gene expression level RES (exposed/unexposed cells) [2]: 0.08
FOS gene expression level RES (exposed/unexposed cells) [2]: 0.05
GADD45A gene expression level RES (exposed/unexposed cells) [2]: 0.04
GPX1 gene expression level RES (exposed/unexposed cells) [2]: 0.02
GSS gene expression level RES (exposed/unexposed cells) [2]: 0.03
GSTM3 gene expression level RES (exposed/unexposed cells) [2]: 0.06
HOXD1 gene expression level RES (exposed/unexposed cells) [2]: 0.05
HSPA5 gene expression level RES (exposed/unexposed cells) [2]: 0.07
HSPA9B gene expression level RES (exposed/unexposed cells) [2]: 0.06
JUN gene expression level RES (exposed/unexposed cells) [2]: 0.05
MDM2 gene expression level RES (exposed/unexposed cells) [2]: 0.06
NFKB1 gene expression level RES (exposed/unexposed cells) [2]: 0.05
NOS2A gene expression level RES (exposed/unexposed cells) [2]: 0.06
PARA gene expression level RES (exposed/unexposed cells) [2]: 0.05
PGR gene expression level RES (exposed/unexposed cells) [2]: 0.04
RAD50 gene expression level RES (exposed/unexposed cells) [2]: 0.06
RAD51 gene expression level RES (exposed/unexposed cells) [2]: 0.06
SOD1 gene expression level RES (exposed/unexposed cells) [2]: 0.04
TF1 gene expression level RES (exposed/unexposed cells) [2]: 0.05
THBS1 gene expression level RES (exposed/unexposed cells) [2]: 0.06
TP53 gene expression level RES (exposed/unexposed cells) [2]: 0.05
TUBA1 gene expression level RES (exposed/unexposed cells) [2]: 0.04
XBP1 gene expression level RES (exposed/unexposed cells) [2]: 0.06
A2M marker test: relevant level of expression (RES <=0.5 or >=2) [3]: relevant result
CDKN1A marker test: relevant level of expression (RES <=0.5 or >=2) [3]: relevant result was found
CYP19A1 marker test: relevant level of expression (RES <=0.5 or >=2) [3]: did not provide any relevant result
SOD1 marker test: relevant level of expression (RES <=0.5 or >=2) [3]: without success
